The text below walks through data of US9718804B2, “GSK-3 inhibitors” (BRISTOL-MYERS SQUIBB COMPANY, priority 2013, dated 2017).

Where two headings read alike, the source gives them in different places.

One test concerns the target GSK3β (Homo sapiens, UniProt P49841). As to the kind of experiment: GSK3β kinase assay (Caliper LabChip, fluoresceinated peptide substrate). In kind it is biochemical. An outline of the steps: (§1)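 IC50 values were derived by non-linear regression from eleven-point dose series. Each reaction was held at room temperature for 20 hours and quenched with EDTA.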
The test system of the next test is pTau. As to the kind of experiment: pTau assay (no method described). The format is cell-based.
The target in a further test is GSK3α (Homo sapiens, UniProt P49840). As to the kind of experiment: GSK3α kinase assay (Caliper LabChip, fluoresceinated peptide substrate). The format is biochemical. An outline of the steps: as §1
Chain of GSK3α (P49840 whole entry, species assumed): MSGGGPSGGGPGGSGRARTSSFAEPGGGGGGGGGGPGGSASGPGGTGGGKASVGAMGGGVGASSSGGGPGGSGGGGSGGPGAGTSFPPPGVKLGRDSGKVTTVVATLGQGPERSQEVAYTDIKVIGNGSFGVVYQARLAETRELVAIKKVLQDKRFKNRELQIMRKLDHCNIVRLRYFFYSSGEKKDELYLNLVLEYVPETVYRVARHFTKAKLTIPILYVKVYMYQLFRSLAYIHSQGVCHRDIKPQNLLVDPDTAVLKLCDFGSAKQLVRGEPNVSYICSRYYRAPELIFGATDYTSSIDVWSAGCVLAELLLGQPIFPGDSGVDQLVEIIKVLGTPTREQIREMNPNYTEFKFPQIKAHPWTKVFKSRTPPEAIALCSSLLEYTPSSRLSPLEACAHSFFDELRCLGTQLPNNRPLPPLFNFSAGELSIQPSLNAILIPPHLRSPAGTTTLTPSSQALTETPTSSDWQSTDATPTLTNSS
[1] abbreviates: first value of the cell, 250 pM enzyme, 20 uM ATP, 20 hours at room temperature, read-out: GSK3β/α (nM): GSK3β IC50.

Chain of GSK3β (P49841 whole entry, species assumed): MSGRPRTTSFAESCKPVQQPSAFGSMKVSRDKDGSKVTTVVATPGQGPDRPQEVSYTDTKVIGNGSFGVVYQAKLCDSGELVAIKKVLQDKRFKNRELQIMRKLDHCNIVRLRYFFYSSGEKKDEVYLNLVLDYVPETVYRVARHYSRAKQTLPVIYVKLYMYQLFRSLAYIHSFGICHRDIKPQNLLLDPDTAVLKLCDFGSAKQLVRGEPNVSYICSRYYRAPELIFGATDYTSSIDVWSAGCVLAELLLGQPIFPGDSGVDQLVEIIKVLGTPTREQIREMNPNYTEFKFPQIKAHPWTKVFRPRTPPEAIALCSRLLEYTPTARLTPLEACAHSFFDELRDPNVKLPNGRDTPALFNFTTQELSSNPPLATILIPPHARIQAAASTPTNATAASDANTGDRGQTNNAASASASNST

As for `O=C(Nc1cnc(Cl)cc1C1(O)CCOCC1)c1ccnc(Nc2ccc(Cl)cn2)c1` [Example 111, N-(6-Chloro-4-(4-hydroxytetrahydro-2H-pyran-4-yl)pyridin-3-yl)-2-((5-chloropyridin-2-yl)amino)isonicotinamide], the IC50 was found to be 2.6 nM on GSK3β; 530 nM in the test with pTau; 1.4 nM on GSK3α (second value of the cell, 250 pM enzyme, 20 uM ATP, 20 hours at room temperature, read-out: GSK3β/α (nM): GSK3α IC50).

Consider `N#Cc1cnn(-c2cncc(NC(=O)c3ccnc(Nc4cccc(C(F)(F)F)n4)c3)c2)c1` [Example 122, N-(5-(4-Cyano-1H-pyrazol-1-yl)pyridin-3-yl)-2-((6-(trifluoromethyl)pyridin-2-yl)amino)isonicotinamide], for which the IC50 is 6.9 nM on GSK3β (setting [1]), 2000 nM in the test with pTau and 2.2 nM at GSK3α.

For `N#Cc1ccc(Nc2cc(C(=O)Nc3cncc4ccccc34)ccn2)nc1` [Example 65, 2-((5-Cyanopyridin-2-yl)amino)-N-(isoquinolin-4-yl)isonicotinamide], the IC50 was 8.5 nM on GSK3β (setting [1]), 420 nM in the test on pTau and 3.2 nM against GSK3α.

Consider `O=C(Nc1cncc(-c2ccccc2F)c1)c1ccnc(Nc2ccc(N3CCOCC3)cn2)c1` [Example 140, N-(5-(2-Fluorophenyl)pyridin-3-yl)-2-((5-morpholinopyridin-2-yl)amino)isonicotinamide], for which the IC50 at GSK3β (setting [1]) turned out to be 6.7 nM; with pTau, 980 nM; against GSK3α, 10 nM.

With `O=C(Nc1cnc(Cl)cc1C(=O)C1CC1)c1ccnc(Nc2ccc(C(F)(F)F)cn2)c1` [Example 92, N-(6-Chloro-4-(cyclopropanecarbonyl)pyridin-3-yl)-2-((5-(trifluoromethyl)pyridin-2-yl)amino)isonicotinamide], the IC50 at GSK3β (setting [1]) amounted to 8.8 nM; in the test on pTau, 1400 nM; against GSK3α, 4 nM.

Take `CC(=O)c1c(NC(=O)c2ccnc(Nc3ccc(C(F)(F)F)cn3)c2)cnn1C` [Example 206, N-(5-Acetyl-1-methyl-1H-pyrazol-4-yl)-2-((5-(trifluoromethyl)pyridin-2-yl)amino)isonicotinamide]: the IC50 was determined as 3.1 nM on GSK3β (setting [1]), 400 nM in the test with pTau and 2.7 nM on GSK3α.

On to `O=C(Nc1cnccc1C1OCCO1)c1ccnc(Nc2ccc(C(F)(F)F)cn2)c1` [Example 40, N-(4-(1,3-Dioxolan-2-yl)pyridin-3-yl)-2-((5-(trifluoromethyl)pyridin-2-yl)amino)isonicotinamide], for which the IC50 on GSK3β (setting [1]) amounted to 23 nM; with pTau, 3300 nM; on GSK3α, 46 nM.

Take `O=C(Nc1cnc(Cl)cc1C1(C2CC2)OCCO1)c1ccnc(Nc2ccc(C(F)(F)F)cn2)c1` [Example 87, N-(6-Chloro-4-(2-cyclopropyl-1,3-dioxolan-2-yl)pyridin-3-yl)-2-((5-(trifluoromethyl)pyridin-2-yl)amino)isonicotinamide]: the figures for the IC50 on GSK3β (setting [1]), with pTau and at GSK3α were 0.04 nM, 6.6 nM and 0.17 nM, respectively.

As for `CC(C)(C#N)c1ccc(Nc2cc(C(=O)Nc3cncc(-c4ccccc4F)c3)ccn2)nc1` [Example 164, 2-((5-(2-Cyanopropan-2-yl)pyridin-2-yl)amino)-N-(5-(2-fluorophenyl)pyridin-3-yl)isonicotinamide], the IC50 on GSK3β (setting [1]) stood at 4.9 nM; in the test on pTau, 3100 nM; against GSK3α it was 2.4 nM.

With `CC(C)Oc1ccncc1NC(=O)c1ccnc(Nc2ccc(C(F)(F)F)cn2)c1` [Example 19, N-(4-(Isopropoxy)pyridin-3-yl)-2-((5-(trifluoromethyl)pyridin-2-yl)amino)isonicotinamide], the values for the IC50 at GSK3β (setting [1]), with pTau and at GSK3α were 1.6 nM, 16 nM and 0.55 nM, respectively.

For `CC(C)CSc1ccncc1NC(=O)c1ccnc(Nc2ccc(C(F)(F)F)cn2)c1` [Example 175, N-(4-(Isobutylthio)pyridin-3-yl)-2-((5-(trifluoromethyl)pyridin-2-yl)amino)isonicotinamide], the IC50 on GSK3β (setting [1]) stood at 1.1 nM; with pTau, 78 nM; on GSK3α it was 0.4 nM.

As to `CC1(COc2ccncc2NC(=O)c2ccnc(Nc3ccc(C(F)(F)F)cn3)c2)CC1` [Example 44, N-(4-((1-Methylcyclopropyl)methoxy)pyridin-3-yl)-2-((5-(trifluoromethyl)pyridin-2-yl)amino)isonicotinamide], the figures for the IC50 at GSK3β (setting [1]), in the test with pTau and on GSK3α were 1.4 nM, 52 nM and 0.33 nM, respectively.

As to `CCC1(c2cc(Cl)ncc2NC(=O)c2ccnc(Nc3ccc(C(F)(F)F)cn3)c2)OCCO1` [Example 79, N-(6-Chloro-4-(2-ethyl-1,3-dioxolan-2-yl)pyridin-3-yl)-2-((5-(trifluoromethyl)pyridin-2-yl)amino)isonicotinamide], the figures for the IC50 on GSK3β (setting [1]), in the test on pTau and on GSK3α were 0.31 nM, 33 nM and 0.17 nM, respectively.

As to `CCOc1ccncc1NC(=O)c1ccnc(Nc2ccc(C#N)cn2)c1` [Example 16, N-(4-Ethoxypyridin-3-yl)-2-((5-cyanopyridin-2-yl)amino)isonicotinamide], the figures for the IC50 at GSK3β (setting [1]), in the test with pTau and against GSK3α were 1.1 nM, 12 nM and 0.62 nM, respectively.

Turning to `O=C(Nc1cnccc1N1CCCCC1)c1ccnc(Nc2ccc(C(F)(F)F)cn2)c1` [Example 23, N-(4-(Piperidin-1-yl)pyridin-3-yl)-2-((5-(trifluoromethyl)pyridin-2-yl)amino)isonicotinamide], the results for the IC50 on GSK3β (setting [1]), with pTau and against GSK3α were 0.24 nM, 6.5 nM and 0.15 nM, respectively.

For `Cc1cccc(Nc2cc(C(=O)Nc3cncc(-c4ccccc4F)c3)ccn2)n1` [Example 137, N-(5-(2-Fluorophenyl)pyridin-3-yl)-2-((6-methylpyridin-2-yl)amino)isonicotinamide], the IC50 was 7.1 nM at GSK3β (setting [1]), 2700 nM with pTau and 5.6 nM against GSK3α.

In the case of `CC1(c2cc(OCCO)ncc2NC(=O)c2ccnc(Nc3ccc(C(F)(F)F)cn3)c2)OCCO1` [Example 84, N-(6-(2-Hydroxyethoxy)-4-(2-methyl-1,3-dioxolan-2-yl)pyridin-3-yl)-2-((5-(trifluoromethyl)pyridin-2-yl)amino)isonicotinamide], the IC50 at GSK3β (setting [1]) came out at 9.2 nM; in the test with pTau, 350 nM; against GSK3α it was 5 nM.

In the case of `O=C(Nc1cncc(-c2cc(F)ccc2F)c1)c1ccnc(Nc2cccc(C(F)(F)F)n2)c1` [Example 146, N-(5-(2,5-Difluorophenyl)pyridin-3-yl)-2-((6-(trifluoromethyl)pyridin-2-yl)amino)isonicotinamide], the IC50 at GSK3β (setting [1]) amounted to 5.1 nM; in the test on pTau, 1400 nM; against GSK3α, 3.2 nM.

Turning to `O=C(Nc1cnc(Cl)cc1C1(c2ccccc2)OCCO1)c1ccnc(Nc2ccc(C(F)(F)F)cn2)c1` [Example 95, N-(6-Chloro-4-(2-phenyl-1,3-dioxolan-2-yl)pyridin-3-yl)-2-((5-(trifluoromethyl)pyridin-2-yl)amino)isonicotinamide], the figures for the IC50 at GSK3β (setting [1]), in the test with pTau and at GSK3α were 10 nM, 910 nM and 5.5 nM, respectively.

As for `CC(C)C(O)(c1cc(Cl)ncc1NC(=O)c1ccnc(Nc2ccc(C(F)(F)F)cn2)c1)C1CC1` (stereo not drawn) [Example 102, N-(6-Chloro-4-(1-cyclopropyl-1-hydroxy-2-methylpropyl)pyridin-3-yl)-2-((5-(trifluoromethyl)pyridin-2-yl)amino)isonicotinamide], the IC50 at GSK3β (setting [1]) was found to be 43 nM; in the test on pTau, 1200 nM; at GSK3α, 30 nM.
